Source: patent US7807367B2, “Enzymatic fluorometric assay for cAMP and adenylate cyclase and kits therefor” (Fuso Pharmaceutical Industries, Ltd., priority 1999, dated 2010)

Test system: ventricular myocytes
Experiment: Micro cAMP measurement in tissue cultures with enzymatic fluorometric assay
Assay type: cell-based, rat
Conditions: isolated ventricular myocytes of 1 day-old rats, 2 μM IBMX, isoproterenol 1 μM final, 5 minutes, one-tenth of eluent, cAMP standard curve
Experimental: Isolated ventricular myocytes were obtained from hearts of 1 day-old rats, grown in primary cultures. There were approximately 5 million viable myocardial cells per heart. After plating at a density of approximately 1 million cells per 100 mm, dish cells were grown in minimum essential medium with Hanks balanced salt solution containing 5% bovine calf serum cells. Simpson et al., Cir. Res., 51, 787 (1982). On day 4, the medium was changed. The cultures contained >90% myocardial cells and cell numbers were constant over time. Simpson et al., Cir. Res., 51, 787 (1982); Rocha-Singh et al., J. Clin. Invest., 88, 204 (1991); and Rocha-Singh et al., J. Clin. Invest., 88, 706 (1991)
Six plates of myocytes were randomized into two groups (n=3 plates/group). […]
A volume of 125 μL of the Detecting Reaction Mixture prepared from (E) (100 mM Tris-HCl, pH 8.0; 3.2 mM EDTA; 0.6 mM NADP^+; 1 U/mL Phosphoglucose isomerase; 0.5 U/mL Glucose-6-phosphate dehydrogenase) was added to each assay tube from Cycling Reactions. After 20 minutes at room temperature, the final concentration of NADPH was measured using a fluorometer (Optical Technology Devises, Inc., NY). The fluorometer was set such that a reading of 10 fluorometric units was equivalent to 1 nmol of NADPH in 900 μL of buffer (50 mM Tris-HCl, pH 8.0). […]

CC(C)NCC(O)c1ccc(O)c(O)c1 (stereo not shown) [isoproterenol]
actual value of cAMP: 680 pmol/100 mm plate
